Patent US9221835B2, “Spirocyclic derivatives as antiparasitic agents” (Zoetis Services LLC, priority 2012, dated 2015)
Where a name gives a salt, the structure may show the parent alone.

Experiments:
Format in all cases: in vivo
[1] = system: Mosquito (Aedes aeqypti) larvae; assay: Mosquito (Aedes aeqypti) Larval Assay; settings: first instar larvae, 25° C., 24 hours, lowest dose to inhibit motility ≧50% of untreated controls, half-log intervals, read-out: Minimum Effective Concentration (MEC)
Procedure: Mosquito (Aedes aeqypti) Larval Assay
Compounds were dissolved in DMSO and aliquots were spotted to empty wells. First instar mosquito larvae and maintenance media were added to the wells to obtain between 8 and 15 larvae per well in the appropriate final assay volume. Larvae were incubated in the treated media at 25° C. for 24 hours. Mosquito larvae motility was measured at 24 hours. Each compound was tested at half-log intervals, and endpoint results were recorded as Minimum Effective Concentration (MEC) in μM. MEC is an objective assessment of organism motility, and is the lowest dose to inhibit motility ≧50% of untreated controls.

[2] = system: Flea (Ctenocephalides felis); assay: Flea (Ctenocephalides felis) Membrane Feed Assay-Adult; settings: adult fleas fed on treated citrated bovine blood for 24 hours, lowest dose to cause mortality ≧50%, half-log intervals, read-out: Minimum Effective Concentration (MEC)
Procedure: Flea (Ctenocephalides felis) Membrane Feed Assay-Adult
Compounds were dissolved in DMSO and aliquots were added to citrated bovine blood in membrane covered wells warmed to 37° C. Adult fleas were newly emerged (3-7 days) and unfed. Feeding wells containing approximately 10 adult fleas were placed onto the treated blood wells, and the fleas were allowed to feed on the treated blood for 24 hours. […] Each compound was tested at half-log intervals, and endpoint data was recorded as Minimum Effective Concentration in μM. MEC is a subjective visual assessment of organism viability, and is the lowest dose to cause mortality ≧50%.

[3] = system: Soft Tick (Ornithidorus turicata); assay: Soft Tick (Ornithidorus turicata) Blood Feed Assay; settings: nymph stage ticks fed on treated citrated bovine blood; paralysis and/or death observed at approximately 24, 48 and 72 hours
Procedure: Soft Tick (Ornithidorus turicata) Blood Feed Assay
Compounds of the present invention were dissolved in dimethylsulfoxide (DMSO) and aliquots added to citrated bovine blood in a membrane covered Petri dish. The Petri dish is placed on a warming tray. Approximately 5 nymph stage ticks are placed onto the membrane, covered, and left to feed. Fed ticks are removed and placed into a Petri dish with sand. […] Endpoint data was recorded as a 100% lethal dose (LD^100) in μg/mL.

SMILES | minimal effective concentration [1] [µM] | minimal effective concentration [2] [µM] | 100% lethal dose (LD100) [3] [µg/mL]
CC(C)C(=O)N1CC2(C1)OCc1cc(C3=NCC(c4cc(Cl)c(Cl)c(Cl)c4)(C(F)(F)F)C3)ccc12 (stereo not shown) [Example 2, 2-methyl-1-(5′-(3-(3,4,5-trichlorophenyl)-3-(trifluoromethyl)-3,4-dihydro-2H-pyrrol-5-yl)-3′H-spiro[azetidine-3,1′-isobenzofuran]-1-yl)propan-1-one] | 0.1 | – | –
CS(=O)(=O)CC(=O)N1CC2(C1)OCc1cc(C3=NCC(c4cc(Cl)c(F)c(Cl)c4)(C(F)(F)F)C3)ccc12 (stereo not shown) [Example 3, 1-(5′-(3-(3,5-dichloro-4-fluorophenyl)-3-(trifluoromethyl)-3,4-dihydro-2H-pyrrol-5-yl)-3′H-spiro[azetidine-3,1′-isobenzofuran]-1-yl)-2-(methylsulfonyl)ethanone] | 0.03 | – | –
CC(C)C(=O)N1CC2(C1)OCc1cc(C3=NCC(c4cc(Cl)c(F)c(Cl)c4)(C(F)(F)F)C3)ccc12 (stereo not shown) [Example 4, 1-(5′-(3-(3,5-dichloro-4-fluorophenyl)-3-(trifluoromethyl)-3,4-dihydro-2H-pyrrol-5-yl)-3′H-spiro[azetidine-3,1′-isobenzofuran]-1-yl)-2-methyl propan-1-one] | 0.1 | – | –
CS(=O)(=O)CC(=O)N1CC2(C1)OCc1cc(C3=NCC(c4cc(Cl)cc(Cl)c4)(C(F)(F)F)C3)ccc12 (stereo not shown) [Example 5, 1-(5′-(3-(3,5-dichlorophenyl)-3-(trifluoromethyl)-3,4-dihydro-2H-pyrrol-5-yl)-3′H-spiro[azetidine-3,1′-isobenzofuran]-1-yl)-2-(methylsulfonyl)ethanone] | 0.03 | 0.3 | –
CS(=O)(=O)CC(=O)N1CC2(C1)OCc1cc(C3=COC(c4cc(Cl)cc(Cl)c4)(C(F)(F)F)C3)ccc12 (stereo not shown) [Example 7, 5′-[5-(3,5-dichlorophenyl)-5-(trifluoromethyl)-4,5-dihydrofuran-3-yl]-1-[(methylsulfonyl)acetyl]-3′H-spiro[azetidine-3,1′-[2]benzofuran]] | > 3 | – | –
CC(C)C(=O)N1CC2(C1)OCc1cc(C3=COC(c4cc(Cl)cc(Cl)c4)(C(F)(F)F)C3)ccc12 (stereo not shown) [Example 8, 5′-[5-(3,5-dichlorophenyl)-5-(trifluoromethyl)-4,5-dihydrofuran-3-yl]-1-isobutyryl-3′H-spiro[azetidine-3,1′-[2]benzofuran]] | > 3 | – | –
CS(=O)(=O)CC(=O)N1CC2(C1)OCc1cc(C3=COC(c4cc(Cl)c(Cl)c(Cl)c4)(C(F)(F)F)C3)ccc12 (stereo not shown) [Example 9, 2-(methylsulfonyl)-1-(5′-(5-(3,4,5-trichlorophenyl)-5-(trifluoromethyl)-4,5-dihydrofuran-3-yl)-3′H-spiro[azetidine-3,1′-isobenzofuran]-1-yl)ethanone] | > 3 | – | –
CC(C)C(=O)N1CC2(C1)OCc1cc(C3=COC(c4cc(Cl)c(Cl)c(Cl)c4)(C(F)(F)F)C3)ccc12 (stereo not shown) [Example 10] | > 3 | – | –
CS(=O)(=O)CC(=O)N1CC2(C1)OCc1cc(C3=COC(c4cc(Cl)c(F)c(Cl)c4)(C(F)(F)F)C3)ccc12 (stereo not shown) [Example 11, 5′-[5-(3,5-dichloro-4-fluorophenyl)-5-(trifluoromethyl)-4,5-dihydrofuran-3-yl]-1-[(methylsulfonyl)acetyl]-3′H-spiro[azetidine-3,1′-[2]benzofuran]] | > 3 | – | –
CC(C)C(=O)N1CC2(C1)OCc1cc(C3=COC(c4cc(Cl)c(F)c(Cl)c4)(C(F)(F)F)C3)ccc12 (stereo not shown) [Example 12, 5′-[5-(3,5-dichloro-4-fluorophenyl)-5-(trifluoromethyl)-4,5-dihydrofuran-3-yl]-1-isobutyryl-3′H-spiro[azetidine-3,1′-[2]benzofuran]] | > 3 | – | –
CN1N=C(c2ccc3c(c2)COC32CN(C(=O)CS(C)(=O)=O)C2)CC1(c1cc(Cl)c(F)c(Cl)c1)C(F)(F)F (stereo not shown) [Example 14, 1-(5′-(5-(3,5-dichloro-4-fluorophenyl)-1-methyl-5-(trifluoromethyl)-4,5-di hydro-1H-pyrazol-3-yl)-3′H-spiro[azetidine-3,1′-isobenzofuran]-1-yl)-2-(methylsulfonyl)ethanone] | – | ≥ 3 | 0.1
CC(C)C(=O)N1CC2(C1)OCc1cc(C3=NNC(c4cc(Cl)c(F)c(Cl)c4)(C(F)(F)F)C3)ccc12 (stereo not shown) [Example 15, 1-(5′-(5-(3,5-dichloro-4-fluorophenyl)-5-(trifluoromethyl)-4,5-dihydro-1H-pyrazol-3-yl)-3′H-spiro[azetidine-3,1′-isobenzofuran]-1-yl)-2-methylpropan-1-one] | – | ≥ 3 | 0.03
CC(C)C(=O)N1CC2(C1)OCc1cc(C3=NN(C)C(c4cc(Cl)c(F)c(Cl)c4)(C(F)(F)F)C3)ccc12 (stereo not shown) [Example 16, 1-(5′-(5-(3,5-dichloro-4-fluorophenyl)-1-methyl-5-(trifluoromethyl)-4,5-dihydro-1H-pyrazol-3-yl)-3′H-spiro[azetidine-3,1′-isobenzofuran]-1-yl)-2-methylpropan-1-one] | – | 1 | 0.03
CC(C)C(=O)N1CC2(C1)OCc1cc(C3=NNC(c4cc(Cl)c(Cl)c(Cl)c4)(C(F)(F)F)C3)ccc12 (stereo not shown) [Example 17] | – | ≥ 3 | –
CS(=O)(=O)CC(=O)N1CC2(C1)OCc1cc(C3=NNC(c4cc(Cl)c(Cl)c(Cl)c4)(C(F)(F)F)C3)ccc12 (stereo not shown) [Example 18, 2-(methylsulfonyl)-1-(5′-(5-(3,4,5-trichlorophenyl)-5-(trifluoromethyl)-4,5-dihydro-1H-pyrazol-3-yl)-3′H-spiro[azetidine-3,1′-isobenzofuran]-1-yl)ethanone hydrochloride] | – | ≥ 3 | –
CC(C)C(=O)N1CC2(C1)OCc1cc(C3=NNC(c4cc(Cl)cc(Cl)c4)(C(F)(F)F)C3)ccc12 (stereo not shown) [Example 19, 1-(5′-(5-(3,5-dichlorophenyl)-5-(trifluoromethyl)-4,5-dihydro-1H-pyrazol-3-yl)-3′H-spiro[azetidine-3,1′-isobenzofuran]-1-yl)-2-methylpropan-1-one hydrochloride] | 0.1 | ≥ 3 | –
CS(=O)(=O)CC(=O)N1CC2(C1)OCc1cc(C3=NNC(c4cc(Cl)cc(Cl)c4)(C(F)(F)F)C3)ccc12 (stereo not shown) [Example 20] | 0.1 | ≥ 3 | –
CC(C)C(=O)N1CC2(C1)OCc1cc(N3CCC(c4cc(Cl)c(F)c(Cl)c4)(C(F)(F)F)C3)ccc12 (stereo not shown) [Example 21] | – | ≥ 3 | 0.01
CC(C)C(=O)N1CC2(C1)OCc1cc(N3CCC(c4cc(Cl)cc(Cl)c4)(C(F)(F)F)C3)ccc12 (stereo not shown) [Example 24] | > 3 | ≥ 3 | –
CC(C)C(=O)N1CC2(C1)OCc1cc(N3CCC(c4cc(Cl)c(Cl)c(Cl)c4)(C(F)(F)F)C3)ccc12 (stereo not shown) [Example 25] | > 3 | ≥ 3 | –
CS(=O)(=O)CC(=O)N1CC2(C1)OCc1cc(C3=NOC(c4cc(Cl)c(F)c(Cl)c4)(C(F)(F)F)O3)ccc12 (stereo not shown) [Example 27, 1-(5′-(5-(3,5-dichloro-4-fluorophenyl)-5-(trifluoromethyl)-1,4,2-dioxazol-3-yl)-3′H-spiro[azetidine-3,1′-isobenzofuran]-1-yl)-2-(methylsulfonyl)ethanone] | > 3 | ≥ 3 | –
CS(=O)(=O)CC(=O)N1CC2(C1)OCc1cc(C3=NOC(c4cc(Cl)cc(Cl)c4)(C(F)(F)F)O3)ccc12 (stereo not shown) [Example 29, 1-(5-(5-(3,5-dichlorophenyl)-5-(trifluoromethyl)-1,4,2-dioxazol-3-yl)-3′H-spiro[azetidine-3,1′-isobenzofuran]-1-yl)-2-(methylsulfonyl)ethanone] | > 3 | ≥ 3 | –
CC(C)C(=O)N1CC2(C1)OCc1cc(C3=NOC(c4cc(Cl)cc(Cl)c4)(C(F)(F)F)O3)ccc12 (stereo not shown) [Example 30, 1-(5-(5-(3,5-dichlorophenyl)-5-(trifluoromethyl)-1,4,2-dioxazol-3-yl)-3′H-spiro[azetidine-3,1′-isobenzofuran]-1-yl)-2-methylpropan-1-one] | – | ≥ 3 | 0.3
CS(=O)(=O)CC(=O)N1CC2(C1)OCc1cc(C3=NOC(c4cc(Cl)c(Cl)c(Cl)c4)(C(F)(F)F)O3)ccc12 (stereo not shown) [Example 32, 2-(methylsulfonyl)-1-(5′-(5-(3,4,5-trichlorophenyl)-5-(trifluoromethyl)-1,4,2-dioxazol-3-yl)-3′H-spiro[azetidine-3,1′-isobenzofuran]-1-yl)ethanone] | > 3 | ≥ 3 | –
